Results as given in PMC10917151 (Nature chemical biology, 2023).
Blank lines part the entries; values can stand above or below the molecule they belong to.

Assays:
[1] = molecular target: endogenous BRD4 in HEK293T cells (Homo sapiens, UniProt O60885); assay: Western blot of endogenous BRD4 degradation; assay type: cell-based; conditions: 18 h
VHL-LgBiT (human) = VHL-LgBiT (human) (UniProt P40337)
Sequence of VHL-LgBiT (human) (P40337 whole entry): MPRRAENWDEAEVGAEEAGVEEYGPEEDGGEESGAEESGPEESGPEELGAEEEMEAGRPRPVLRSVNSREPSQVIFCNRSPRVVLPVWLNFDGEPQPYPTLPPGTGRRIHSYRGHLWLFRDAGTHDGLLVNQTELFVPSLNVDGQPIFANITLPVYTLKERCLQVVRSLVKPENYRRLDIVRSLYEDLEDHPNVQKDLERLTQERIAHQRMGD

endogenous BRD4 degradation at 1 μM (Western blot) ([1]; 1 μM): complete BRD4 removal
Molecule: Cc1ncsc1-c1ccc(CNC(=O)[C@@H]2C[C@@H](O)CN2C(=O)[C@@H](NC(=O)COCCOCCOCCNC(=O)C[C@@H]2N=C(c3ccc(Cl)cc3)c3c(sc(C)c3C)-n3c(C)nnc32)C(C)(C)C)cc1 [MZ1]

endogenous BRD4 degradation (Western blot) [1]: no degradation
Molecule: CC(=O)N[C@H](C(=O)N1C[C@H](O)C[C@H]1C(=O)NCc1ccc(-c2scnc2C)cc1)C(C)(C)C [VH032]

HiBiT assay: DC50 of degradation of HiBiT-tagged BRD4^BD1 in HEK293T with CIP-2 (VHL-LgBiT (human)): 17 nM | HiBiT assay: Dmax of degradation of HiBiT-tagged BRD4^BD1 in HEK293T with CIP-2 (VHL-LgBiT (human)): 93%
Molecule: SmBiT-BRD4^BD1 (domain or fragment)
